Assay results: patent publication US11458188B2, “ABC transporter peptide inhibitor XH-14C and application thereof” (HUNAN UNIVERSITY OF SCIENCE AND ENGINEERING, priority 2020, dated 2022)
Like-named read-outs stand apart in the source and are kept apart here.

Assays:
[1] = tested on: drug-induced ABCC1-overexpressing cancer cell line KB-CV60; assay: MDR reversal study (MTT), drug-induced ABCC1-overexpressing cell line; type: cell-based; conditions: for IC50: Table 5, no reversal agent, read-out: IC50, chemotherapeutic alone
[2] = tested on: transfected ABCC1-overexpressing cell line HEK293/ABCC1; assay: MDR reversal study (MTT), transfected ABCC1-overexpressing cell line; type: cell-based; conditions: for IC50: Table 6, no reversal agent, read-out: IC50, chemotherapeutic alone
[3] = tested on: transfected empty vector cell line HEK293/pcDNA3.1; assay: MDR reversal study (MTT), transfected empty vector cell line; type: cell-based; conditions: for IC50: read-out: IC50, chemotherapeutic alone
[4] = tested on: parental cancer cell line KB-3-1; assay: MDR reversal study (MTT), parental cancer cell line; type: cell-based; conditions: for IC50: read-out: IC50, chemotherapeutic alone
[5] = tested on: transfected ABCB1-overexpressing cell line HEK293/ABCB1; assay: MDR reversal study (MTT), transfected ABCB1-overexpressing cell line; conditions: Table 4, IC50 divided by IC50 in HEK293/pcDNA3.1
[6] = tested on: drug-induced ABCB1-overexpressing cancer cell line KB-C2; assay: MDR reversal study (MTT), drug-induced ABCB1-overexpressing cell line; conditions: Table 3, IC50 divided by IC50 in KB-3-1
[7] = tested on: ABCC1-overexpressing cancer cells (KB-CV60); assay: Modified MTT cytotoxicity assay, ABCC1-overexpressing cells; conditions: KB-CV60, 72 h, read-out: IC50 (cytotoxicity), KB-CV60
parental cells (KB-3-1) = assay: Modified MTT cytotoxicity assay, parental cells; conditions: Homo sapiens, KB 3-1, 72 h, read-out: IC50 (cytotoxicity), KB-3-1
[8] = tested on: ABCB1-overexpressing cancer cells (KB-C2); assay: Modified MTT cytotoxicity assay, ABCB1-overexpressing cells; conditions: Homo sapiens, KB-C2, 72 h, read-out: IC50 (cytotoxicity), KB-C2

`N.N.[Cl][Pt][Cl]` [Cisplatin] was tested, and the IC50 [1] was 2230 nM, the IC50 [2] was 2240 nM and the IC50 ([3]; Table 4, no reversal agent) was 2210 nM. It also gave an IC50 ([3]; Table 6, no reversal agent) of 2210 nM, an IC50 ([4]; Table 3, no reversal agent) of 1790 nM and an IC50 ([4]; Table 5, no reversal agent) of 1790 nM.

With `COc1cccc2c1C(=O)c1c(O)c3c(c(O)c1C2=O)C[C@@](O)(C(=O)CO)C[C@@H]3O[C@H]1C[C@H](N)[C@H](O)[C@H](C)O1` [Adriamycin] the “RF (resistance fold), chemotherapeutic alone” value (shortened to “RF (resistance fold)”) [5] was 25.29, the “RF (resistance fold)” value ([3]; Table 4, no reversal agent) was 1.00 and the “RF (resistant fold), chemotherapeutic alone” value (shortened to “RF (resistant fold)”) ([4]; Table 3, no reversal agent) was 1.00. The “RF (resistant fold)” value [6] was 58.84.

In the case of `CC[C@]1(O)C[C@H]2CN(CCc3c([nH]c4ccccc34)[C@@](C(=O)OC)(c3cc4c(cc3OC)N(C=O)[C@H]3[C@@](O)(C(=O)OC)[C@H](OC(C)=O)[C@]5(CC)C=CCN6CC[C@]43[C@@H]65)C2)C1` [Vincristine], the “RF (resistance fold)” value ([1]; Table 5, IC50 divided by IC50 in KB-3-1) is reported as 169.05, the IC50 [1] is reported as 16100 nM and the “RF (resistance fold)” value ([2]; Table 6, IC50 divided by IC50 in HEK293/pcDNA3.1) is reported as 19.79. For the same compound, the IC50 [2] was 2710 nM, the “RF (resistance fold)” value ([3]; Table 6, no reversal agent) was 1.00 and the “RF (resistance fold)” value ([4]; Table 5, no reversal agent) was 1.00. For the same compound, the IC50 [7] was 16100 nM and the IC50 (parental cells (KB-3-1)) was 95 nM.

For `CC(=O)O[C@H]1C(=O)[C@@]2(C)[C@H]([C@H](OC(=O)c3ccccc3)[C@]3(O)C[C@H](OC(=O)[C@H](O)[C@@H](NC(=O)c4ccccc4)c4ccccc4)C(C)=C1C3(C)C)[C@]1(OC(C)=O)CO[C@@H]1C[C@@H]2O` [Paclitaxel], the “RF (resistant fold)” value ([4]; Table 3, no reversal agent) was 1.00, the IC50 (parental cells (KB-3-1)) was 30 nM and the IC50 [8] was 1770 nM.

With `CN(C)C(=O)CCSC(SCCC(=O)O)c1cccc(/C=C/c2ccc3ccc(Cl)cc3n2)c1` (centres unmarked) [MK571] the “RF of Cisplatin + MK571” value ([3]; Table 6, MK571 5 μM) was 0.99 and the “RF of Vincristine + MK571” value ([3]; Table 6, MK571 5 μM) was 1.02.
